Structures are written as SMILES.

One data set is described as follows: Color of crystalline ALA hydrochloride in sealed vials after gamma irradiation. Particulars: crystals in sealed 60 ml glass vials after gamma radiation at the target dose (0, 15 or 30 KGys). The data set is classed as physicochemical. The protocol:
ALA hydrochloride salt was obtained from Sochinaz, S.A., Vionnez, Switzerland. 1.65 grams of ALA hydrochloride salt was placed into 60 ml glass vials. 360 vials of crystalline non-irradiated ALA were prepared. of these, 225 vials were sealed under ambient conditions,and were irradiated with gamma radiation as shown in Table 1. Crystalline ALA was first micronized by pulverizing into fine particles a few μm in diameter by a jet mill by Micro-Macinazione, S.A. to determine if further reducing the crystalline size would have any effect on the color of the irradiated ALA. After micronization, 1.65 grams of ALA hydrochloride salt was placed into 60 ml glass vials. A total of 270 vials of crystalline non-irradiated ALA were prepared.
Consider `NCC(=O)CCC(=O)O` [Example 5, 5-aminolevulinic acid], for which the color entry is listed as “yellow”.

`NCC(=O)CCC(=O)O` [Example 3, 5-aminolevulinic acid]: the color result is given as “yellow”.

Turning to `NCC(=O)CCC(=O)O` [Example 10, 5-aminolevulinic acid], the color entry was “yellow”.

As for `NCC(=O)CCC(=O)O` [Example 2, 5-aminolevulinic acid], the color result was “yellow”.

Regarding `NCC(=O)CCC(=O)O` [Example 1, 5-aminolevulinic acid], the color entry was “yellow”.

As to `NCC(=O)CCC(=O)O` [Example 6, 5-aminolevulinic acid], the color result is recorded as “yellow”.

For the compound `NCC(=O)CCC(=O)O` [Comp. Ex. 3, 5-aminolevulinic acid], the color result is on record as “off white”.

Take `NCC(=O)CCC(=O)O` [Comp. Ex. 1, 5-aminolevulinic acid]: the color result is recorded as “off white”.

In the case of `NCC(=O)CCC(=O)O` [Comp. Ex. 2, 5-aminolevulinic acid], the color entry is “off white”.

On to `NCC(=O)CCC(=O)O` [Example 4, 5-aminolevulinic acid], for which the color entry was “yellow”.

As to `NCC(=O)CCC(=O)O` [Example 7, 5-aminolevulinic acid], the color entry is reported as “yellow”.

Turning to `NCC(=O)CCC(=O)O` [Example 8, 5-aminolevulinic acid], the color result is recorded as “yellow”.

For `NCC(=O)CCC(=O)O` [Comp. Ex. 4, 5-aminolevulinic acid], the color result is listed as “off white”.

With `NCC(=O)CCC(=O)O` [Example 9, 5-aminolevulinic acid], the color result is “yellow”.

A short description of another data set: Storage stability of gamma irradiated ALA in the sealed bottle. The data set is classed as physicochemical. Particulars: despite the yellow color of the irradiated crystals. The text has this:
The present invention is based on the finding that sterile ALA can be made and prepared well in advance of its final use, despite the extreme degradation generally found with ALA as noted above.
Consider `NCC(=O)CCC(=O)O` [irradiated crystalline ALA, 5-aminolevulinic acid], for which the degradation after irradiation result is on record as “had not been degraded”.

The nature of the next data set: Degradation of crystalline ALA under gamma radiation. The data set is classed as physicochemical. The following applies: gamma radiation dose of 25 kilograys or greater. The text has this:
This is significant, in that the United States Food and Drug Administration's (“FDA”) level of gamma irradiation for “overkill” is 25 kilograys. This is a level at which the FDA presumes, without evidence, that virtually all microorganisms have been killed.
With `NCC(=O)CCC(=O)O` [crystalline ALA, 5-aminolevulinic acid], the “degradation of the ALA at high gamma dose” value is “without detectable degradation”.

A further data set is described as follows: Comparison of irradiated and non-irradiated ALA (spectroscopic, chromatographic, solution pH, solubility profile, calorimetry; FIGS. 2-14). The format is physicochemical. Particulars: solution pH or solubility profile, except for the color. The text has this:
This is explained more fully below with respect to FIGS. 2 to 14.
Although not intending to be bound by any theory, it appears that the color imparted by irradiation is due to F-centers.
The calorimetric measurements of FIGS. 2 and 3 indicate that any major structural differences are present in quantities of less than 1% of the total ALA amount, or that the type of any structural modification is such that the sensitivity of the calorimetric assay to the change is below the capacity of the instrumentation.
Spectral reflectance as shown in FIGS. 4 and 8-10 is very sensitive to spectral differences at or near the surface, while photoacoustic spectroscopy (“PAS”) as shown in FIGS. 5-7 is sensitive to changes both at the surface and the interior of the crystal.
Subsequent analysis of the type described above with respect to FIGS. 2-14, confirmed that there was no discernible difference in structure or pharmacological activity between the irradiated examples and the non-irradiated control comparative examples.
As to `NCC(=O)CCC(=O)O` [irradiated crystalline ALA, 5-aminolevulinic acid], the “chemical properties versus non-irradiated ALA” value is reported as “has not been distinguished in any chemical property from non-irradiated ALA”.

For the origin of these results see patent US6335465B1, “Sterilized 5-aminolevulinic acid” (Dusa Pharmaceuticals, Inc., priority 1997, dated 2002).
